# Measurements reported in US20160243062A1, “SYNTHESIS AND GROWTH REGULATORY ACTIVITY OF A PROTOTYPE MEMBER OF A NEW FAMILY OF AMINOTHIOL RADIOPROTECTORS” (WISCONSIN ALUMNI RESEARCH FOUNDATION, priority 2012, published 2016).
# Tested on: radiation dermatitis in rat skin
# Experiment: Rat radiation dermatitis assay, topical application before irradiation
# Type: in vivo
# Procedure: To determine if PrC-210 could function as a topical radioprotector that could prevent radiation dermatitis when applied prior to a cancer patient's daily radiotherapy, a rat assay that realistically mimics human radiation dermatitis was created. This assay quantifies the severity of radiation dermatitis in rat skin 13 days after a single radiation dose of 17.33 Gy.
# In this study, PrC-210 was applied to rat skin in an ethanol/water delivery vehicle four times in the 2 h before irradiation, and control rats received only topical vehicle before irradiation (FIG. 2). Additional drug/irradiation groups of three rats each received either the alkyl-thiol moiety or the alkyldiamine moiety from PrC-210 in the same delivery vehicle. Following the 17.33 Gy irradiation of a […] patch of dorsal skin on the rats' backs, rats were scored 13 days later.
# Molecules were applied to skin in an alcohol/water delivery vehicle prior to receiving a 17.33 Gy radiation dose to the 1.5 cm×3.0 cm skin site. Radiation dermatitis severity (i.e., % of the site covered by scab material) was scored 13 days following irradiation.
compound,measurement,setting,value
"CNCC(CS)CNC [PrC-210, 3-(methyl-amino)-2-((methylamino)methyl)propane-l-thiol]",topical radioprotective potency and efficacy compared with thiolated polyamines and other PrC-200 series aminothiols,radiodermatitis test groups,most potent and most effective topical aminothiol to date
same,prevention of radiation dermatitis (% of the site covered by scab material),"topical in ethanol/water vehicle four times in the 2 h before single 17.33 Gy dose, scored 13 days later",completely prevent radiation dermatitis
